According to publication PMC11432795, “Mutagenesis of the Peptide Inhibitor of ASIC3 Channel Introduces Binding to Thumb Domain of ASIC1a but Reduces Analgesic Activity” (Marine Drugs, 2024):
Positions of bridges follow the written chain, without caps; N, C: chain ends. Residues, ends and D or L forms follow the SMILES beside them.

Columns and labels:
rat ASIC3 channel = molecular target: T1, rat ASIC3 channel (Rattus norvegicus, UniProt O35240); test: Two-electrode voltage clamp, rat ASIC3 in X. laevis oocytes; format: cell-based; details: pH 5.5 stimulus, mean ± S.E.M., 5 cells; for nH: inhibition of rat ASIC3, conditioning pH 7.4; for IC50: rat ASIC3, X. laevis oocytes, TEVC, Vh −50 mV, conditioning pH 7.4, peptide 30 s before stimulus
T1 construct: expressed in transfected cells; host or cells: Xenopus laevis oocytes injected with mRNA made from pcDNA3.1-rat ASIC3
T1 sequence (O35240 1-533): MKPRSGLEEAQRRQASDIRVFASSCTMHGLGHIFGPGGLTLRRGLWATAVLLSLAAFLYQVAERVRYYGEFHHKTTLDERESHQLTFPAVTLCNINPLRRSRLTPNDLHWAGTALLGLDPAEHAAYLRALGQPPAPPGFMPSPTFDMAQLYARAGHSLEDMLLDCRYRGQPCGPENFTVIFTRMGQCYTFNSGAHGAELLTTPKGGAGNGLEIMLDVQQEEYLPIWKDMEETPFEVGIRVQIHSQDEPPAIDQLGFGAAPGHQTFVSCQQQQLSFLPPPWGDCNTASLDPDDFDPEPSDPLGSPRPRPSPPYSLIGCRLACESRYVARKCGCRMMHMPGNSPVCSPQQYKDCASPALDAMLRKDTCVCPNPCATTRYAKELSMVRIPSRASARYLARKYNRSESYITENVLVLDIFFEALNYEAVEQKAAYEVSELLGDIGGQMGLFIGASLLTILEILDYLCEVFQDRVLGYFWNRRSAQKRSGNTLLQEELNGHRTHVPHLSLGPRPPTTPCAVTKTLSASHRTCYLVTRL
Protocol: Figure 3 The effect of mutant peptides S16K and A23K on rat ASIC1a and ASIC3 channels. […] (B) Dose–response curves for the inhibitory effect of mutant peptides on ASIC1a. Each data point represents data from 5 cells. (C) Representative current traces of Ugr9-1, S16K, and A23K at a concentration of 12.5 µM on ASIC3. […] Each point represents data from 5 cells. The depicted currents were induced by a pH 5.5 stimulus following a conditioning pH of 7.4, with peptides applied for 30 s before the pH stimulus. The holding potential (Vh) was −50 mV, and the time interval between applications ranged from 1 to 2 min. Data are presented as mean ± S.E.M.
(§1) A small portion of the ovary was isolated from frogs under anesthesia induced by a 0.17% solution of procaine methanesulphonate (MS222) (Sigma), followed by treatment with collagenase (1 mg/mL) at room temperature for 2 h. Oocytes at stages IV and V, devoid of follicular membranes, were transferred to ND-96 medium (containing 96 mM NaCl, 5 mM HEPES, 2 mM KCl, 1.8 mM CaCl2, 1 mM MgCl2, pH 7.4). mRNA synthesis was performed from pcDNA3.1 vectors (Invitrogen, Carlsbad, CA, USA) containing the rat ASIC3 gene, as well as pCI vectors containing genes for rat ASIC1a, its mutant analogues, and ASIC1b. mRNA (2.5–10 ng) was then injected into the oocytes. For the ASIC1a/3 heteromeric channels, the mRNA encoding the ASIC1a and ASIC3 subunits were injected in a 1:5 ratio, respectively. Subsequently, the oocytes were incubated for 2–3 days at a temperature of 17–19 °C in ND96 medium supplemented with gentamicin and streptomycin (20 µg/mL each).
(§2) Whole-cell electrophysiological recordings of ASIC channels were conducted using a two-electrode voltage-clamp setup. Microelectrodes were filled with 3 M KCl. Recordings from oocytes were carried out at a holding potential of −50 mV, with data filtered at 10 Hz and sampled at a rate of 100 Hz using an L780M ADC (LCard, Moscow, Russia). The synchronized delivery of solutions into the chamber and recording of electrophysiological results were carried out using in-house software v.2. Activation of ASIC channels occurred through rapid pH changes in the solution, achieved by replacing the working solution in the chamber with ND96-based solutions at varying pH levels. Specifically, HEPES was substituted with 10 mM MES for pH 5.5–6.5 and MOPS for pH 6.7–7.0.
(§3) Fresh peptide solutions were meticulously prepared in ND96 buffer with a pH of 7.43 immediately before experiments, with strict control over the pH levels. Peptides were applied for 30 s at a conditioning pH of 7.43 before acid stimulation of the channel. The interval between applications was maintained at a minimum of 1.5 to 2 min.
(§4) Electrophysiological data analysis was conducted using OriginPro 2018 software (OriginLab, Northampton, MA, USA). Dose–response relationships for Ugr9a-1, S16K, and A23K peptides were fitted using a Hill function: F1(x) = A − A/(1 + (x/IC50)^nH), where F1(x) represents the amplitude of the current at concentration x of the peptide, A is the maximum amplitude of the current, IC50 is the half-maximum inhibitory concentration of the peptide, and nH is the Hill coefficient.

[1] = molecular target: T2, rat ASIC1a/3 heteromeric channels (Rattus norvegicus, UniProt O35240+P55926); test: Two-electrode voltage clamp, rat ASIC1a/3 heteromeric channels in X. laevis oocytes; format: cell-based
T2 construct: expressed in transfected cells; host or cells: Xenopus laevis oocytes co-injected with ASIC1a and ASIC3 mRNA (1:5)
T2 sequence (P55926 1-526): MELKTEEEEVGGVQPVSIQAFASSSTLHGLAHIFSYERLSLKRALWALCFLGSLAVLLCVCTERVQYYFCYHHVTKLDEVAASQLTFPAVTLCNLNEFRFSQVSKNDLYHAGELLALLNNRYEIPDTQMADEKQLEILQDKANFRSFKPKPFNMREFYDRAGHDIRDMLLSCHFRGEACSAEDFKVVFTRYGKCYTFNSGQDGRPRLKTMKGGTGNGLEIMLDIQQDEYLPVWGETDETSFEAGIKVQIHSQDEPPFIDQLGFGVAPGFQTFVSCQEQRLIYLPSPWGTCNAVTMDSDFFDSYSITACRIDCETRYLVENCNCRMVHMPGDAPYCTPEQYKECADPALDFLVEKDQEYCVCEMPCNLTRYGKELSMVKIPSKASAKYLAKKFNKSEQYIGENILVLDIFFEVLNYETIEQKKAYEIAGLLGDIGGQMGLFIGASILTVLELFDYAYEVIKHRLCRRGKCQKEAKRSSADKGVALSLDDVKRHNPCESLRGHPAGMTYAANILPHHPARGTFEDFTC
T2 sequence (O35240 1-533): T1 sequence (O35240 1-533)
Source text: Figure 4 The effect of the mutant peptide A23K on rat heteromeric ASIC1a/3 channels. […] The depicted currents were induced by a pH 5.5 stimulus following a conditioning pH of 7.4, with the peptide applied for 30 s before the pH stimulus. (B) Dose–response curve for the inhibitory effect of the mutant peptide. Each data point represents data from 6 cells. Data are presented as mean ± S.E.M.
as §1, §2, §3, §4

human ASIC3 channels = details: ref [18]; cited from earlier work
Source text: Peptide Ugr9-1 was originally identified as a negative modulator of human ASIC3 channels. […] Combining comparative analysis, molecular modeling techniques, and structural and functional studies, we generated two novel peptide variants derived from Ugr9-1 capable of modulating both ASIC3 and ASIC1a channels.

Compound	nH (rat ASIC3 channel)	IC50 (rat ASIC3 channel) [µM]	inhibitory effect on heteromeric channels compared to homomeric ASIC1a ([1]; ASIC1a/3 versus homomeric ASIC1a)	inhibitory effect on heteromeric channels compared to homomeric ASIC3 ([1]; ASIC1a/3 versus homomeric ASIC3)	nH ([1]; inhibition of rat ASIC1a/3, pH 5.5 stimulus, conditioning pH 7.4, mean ± S.E.M., 6 cells)	IC50 ([1]; rat ASIC1a/3 heteromer, X. laevis oocytes (mRNA 1:5), pH 5.5 stimulus, conditioning pH 7.4, peptide 30 s, mean ± S.E.M., 6 cells) [µM]	wash procedure required to restore ASIC1a/3 function ([1]; washout after peptide)	IC50 (human ASIC3 channels) [µM]
CC[C@H](C)[C@H](N)C(=O)N[C@@H](CO)C(=O)N[C@H](C(=O)N[C@@H](CC(=O)O)C(=O)N1CCC[C@H]1C(=O)N1CCC[C@H]1C(=O)N[C@H]1CSSC[C@@H]2NC(=O)[C@H](CC(N)=O)NC(=O)CNC(=O)[C@H](CO)NC(=O)CNC(=O)[C@H](CC(=O)O)NC(=O)[C@H](CCCNC(=N)N)NC(=O)[C@H](Cc3c[nH]cn3)NC(=O)[C@H](Cc3ccc(O)cc3)NC(=O)[C@H](CSSC[C@@H](C(=O)NCC(=O)N[C@@H](C)C(=O)N[C@H](C(=O)O)C(C)C)NC(=O)CNC(=O)[C@H](Cc3ccc(O)cc3)NC(=O)[C@H](CCCCN)NC(=O)[C@H](CC(=O)O)NC(=O)[C@H](Cc3ccc(O)cc3)NC(=O)[C@H](C(C)C)NC2=O)NC(=O)[C@H](Cc2ccccc2)NC(=O)[C@H](CCCNC(=N)N)NC1=O)[C@@H](C)CC [A23K] (H-ISIDPPCRFCYHRDGSGNCVYDKYGCGAV-OH; disulfide 7-19, 10-26)	3.58 ± 0.08	9.39	approximately 1.6 -fold	~2.2 -fold	1.6 ± 0.2	4.2 ± 0.6	extended wash procedure required to restore ASIC1a/3 function	–
CC[C@H](C)[C@H](N)C(=O)N[C@@H](CO)C(=O)N[C@H](C(=O)N[C@@H](CC(=O)O)C(=O)N1CCC[C@H]1C(=O)N1CCC[C@H]1C(=O)N[C@H]1CSSC[C@@H]2NC(=O)[C@H](CC(N)=O)NC(=O)CNC(=O)[C@H](CO)NC(=O)CNC(=O)[C@H](CC(=O)O)NC(=O)[C@H](CCCNC(=N)N)NC(=O)[C@H](Cc3c[nH]cn3)NC(=O)[C@H](Cc3ccc(O)cc3)NC(=O)[C@H](CSSC[C@@H](C(=O)NCC(=O)N[C@@H](C)C(=O)N[C@H](C(=O)O)C(C)C)NC(=O)CNC(=O)[C@H](Cc3ccc(O)cc3)NC(=O)[C@H](C)NC(=O)[C@H](CC(=O)O)NC(=O)[C@H](Cc3ccc(O)cc3)NC(=O)[C@H](C(C)C)NC2=O)NC(=O)[C@H](Cc2ccccc2)NC(=O)[C@H](CCCNC(=N)N)NC1=O)[C@@H](C)CC [Ugr9-1] (H-ISIDPPCRFCYHRDGSGNCVYDAYGCGAV-OH; disulfide 7-19, 10-26)	2.33 ± 0.17	14.2 ± 0.96	–	–	–	–	–	10
